Drawing on ChEMBL document CHEMBL2074247, “Induction of P-glycoprotein expression by HIV protease inhibitors in cell culture” (AIDS, 2000), this text covers Activity for 5 compounds.

Structures are written as SMILES.

The target of this data set is ATP-dependent translocase ABCB1 (Homo sapiens, UniProt P08183). Kind of data set: TP_TRANSPORTER: Western blot, LS-180V. The data set is classed as functional, cell-based. Background: A western blot detects proteins with antibodies after separation by electrophoresis.
ATP-dependent translocase ABCB1, sequence (P08183 whole entry): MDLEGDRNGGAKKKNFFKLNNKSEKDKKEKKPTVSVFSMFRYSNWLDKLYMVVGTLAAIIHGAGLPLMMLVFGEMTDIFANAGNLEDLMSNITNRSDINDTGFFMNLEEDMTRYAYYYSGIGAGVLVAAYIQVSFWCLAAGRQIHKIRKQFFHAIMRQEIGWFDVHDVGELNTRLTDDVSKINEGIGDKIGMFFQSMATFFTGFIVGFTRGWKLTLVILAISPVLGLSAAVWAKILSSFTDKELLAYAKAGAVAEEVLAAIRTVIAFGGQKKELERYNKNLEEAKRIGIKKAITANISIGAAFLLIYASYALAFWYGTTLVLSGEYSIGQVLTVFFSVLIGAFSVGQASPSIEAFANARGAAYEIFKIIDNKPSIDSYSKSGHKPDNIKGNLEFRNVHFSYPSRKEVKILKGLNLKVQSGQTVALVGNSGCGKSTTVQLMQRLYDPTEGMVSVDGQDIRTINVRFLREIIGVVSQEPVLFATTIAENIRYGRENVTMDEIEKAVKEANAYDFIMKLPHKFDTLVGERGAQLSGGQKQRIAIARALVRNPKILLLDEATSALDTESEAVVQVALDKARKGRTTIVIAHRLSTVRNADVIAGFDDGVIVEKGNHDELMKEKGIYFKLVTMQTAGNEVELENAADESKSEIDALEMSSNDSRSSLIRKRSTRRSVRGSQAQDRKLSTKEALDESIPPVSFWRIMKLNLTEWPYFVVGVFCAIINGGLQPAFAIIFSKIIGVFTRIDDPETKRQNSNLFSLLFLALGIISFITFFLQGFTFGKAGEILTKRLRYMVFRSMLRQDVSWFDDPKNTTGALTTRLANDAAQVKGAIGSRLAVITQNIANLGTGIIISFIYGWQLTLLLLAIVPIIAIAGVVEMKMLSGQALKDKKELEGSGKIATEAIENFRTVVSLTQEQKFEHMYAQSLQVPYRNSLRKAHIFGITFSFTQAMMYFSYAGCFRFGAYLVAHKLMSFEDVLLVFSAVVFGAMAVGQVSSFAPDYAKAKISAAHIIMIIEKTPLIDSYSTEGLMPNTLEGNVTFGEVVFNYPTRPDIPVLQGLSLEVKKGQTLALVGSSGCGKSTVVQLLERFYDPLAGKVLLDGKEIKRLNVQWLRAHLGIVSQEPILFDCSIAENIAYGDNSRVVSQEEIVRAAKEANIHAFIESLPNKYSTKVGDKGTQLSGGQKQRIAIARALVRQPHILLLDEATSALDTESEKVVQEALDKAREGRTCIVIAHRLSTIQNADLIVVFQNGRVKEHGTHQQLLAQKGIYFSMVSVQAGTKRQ
For `CC(C)CN(C[C@@H](O)[C@H](Cc1ccccc1)NC(=O)O[C@H]1CCOC1)S(=O)(=O)c1ccc(N)cc1` [AMPRENAVIR], the Activity result was “inducer [+]”.

Consider `CC(C)(C)NC(=O)[C@@H]1CN(Cc2cccnc2)CCN1C[C@@H](O)C[C@@H](Cc1ccccc1)C(=O)N[C@H]1c2ccccc2C[C@H]1O.O` [INDINAVIR], for which the Activity result was “inducer [+]”. Turning to `Cc1c(O)cccc1C(=O)N[C@@H](CSc1ccccc1)[C@H](O)CN1C[C@H]2CCCC[C@H]2C[C@H]1C(=O)NC(C)(C)C` [NELFINAVIR], the Activity entry was “inducer [+]”. As for `CC(C)(C)NC(=O)[C@@H]1C[C@@H]2CCCC[C@@H]2CN1C[C@@H](O)[C@H](Cc1ccccc1)NC(=O)[C@H](CC(N)=O)NC(=O)c1ccc2ccccc2n1` [SAQUINAVIR], the Activity entry was “inducer [+]”.

Regarding `COc1ccc(CCN(C)CCCC(C#N)(c2ccc(OC)c(OC)c2)C(C)C)cc1OC` (stereo not given) [VERAPAMIL], the Activity entry is “inducer [+]”.
